Patent US10513694B2, “Thienopyrrole compounds and uses thereof” (PROMEGA CORPORATION, priority 2015, dated 2019)

Tests used:
Type in all cases: cell-based
[1] = system: Nluc-HALOTAG labeled with NANOBRET 618 ligand; assay: Inhibition of extracellular BRET; conditions: HEK293 Nluc-HDAC6; 10 ng/mL extracellular Nluc-HALOTAG/NANOBRET 618; 2 hrs
Experimental: HEK293 were transiently transfected with an Nluc-HDAC6 fusion protein to orient Nluc-HDAC6 inside the cell. 24 hrs post-transfection, cells were treated 10 ng/mL purified Nluc-HALOTAG labeled with NANOBRET 618 ligand to simulate spurious extracellular BRET. Cells were then exposed to a compound response curve of the thienopyrrole compounds, JRW-0013, JRW-0051, JRW-0147, and JRW-0187, for 2 hrs. 10 μM furimazine was then added, and BRET ratio 610/450 nm was measured.

Nluc = Nluc (Oplophorus gracilirostris, UniProt Q9GV45, A31E/A60N/A81I/F95D/I117V/K70R/L54V/L99Q/M102K/N193R/P142E/Q151K/Q38R/Q45L/V71I/Y165I); assay: Multiplex RealTime-Glo / Caspase-Glo 3/7 in MCF7 cells; set-up: purchased Promega Corporation
Experimental: (§1) A) In a Corning 3570 assay plate, MCF7 cells were plated at 1,000 cells/well in 20 μL of cell culture media (EMEM supplemented with 0.01 mg/mL human recombinant insulin and 10% fetal bovine serum) and incubated in overnight. 10 μL of 4× REALTIME-GLO™ MT Cell Viability reagents (Promega Corporation) in media or 10 μL media only was added to the cells. 10 μL of 40 μM staurosporine in media or 10 μL media only (control) was added to the cells. The cells were incubated, and caspase activation monitored at 5.5 hrs post-reagent addition. To monitor caspase activation, 40 μL CASPASE-GLO® 3/7 Assay Reagent (Promega Corporation), either on its own (Caspase) or with 200 μM of JRW-0004, JRW-0013, or JRW-0042, was added. Reactions were incubated at RT, and luminescence was measured at 1 hr 10 min post-reagent addition on Tecan M1000 Pro plate reader.
(§2) When comparing the signal generated from the CASPASE-GLO® reagent in media only versus the signal generated in media containing REALTIME-GLO™ reagent, the signal is higher in the multiplex reaction.

Nluc enzyme = assay: as above
Experimental: as §1, §2

Src-Nluc fusion protein = assay: Target engagement model (Src-Nluc BRET); conditions: HEK293 Src-Nluc -/+ 50 μg/mL digitonin; 1 μM Dasatinib-DY605 tracer; 2 hrs
Experimental: HEK293 cells were transiently transfected with Src-Nluc fusion protein. 24 hours post-transfection, cells were treated with −/+50 μg/mL digitonin to simulate a live and lytic scenario, respectively. Intact cells and permeabilized cells were labeled with 1 μM Dasatinib-DY605 tracer (impermeable) and treated with a cell impermeable thienopyrrole compound JRW-0147 response curve for 2 hrs. 10 μM furimazine was added, and a BRET ratio 610/450 nm was recorded.

[2] = system: B2AR-Nluc or Nluc-B2AR fusion protein; assay: Cell permeability with bioluminescent imaging (HeLa, B2AR-Nluc / Nluc-B2AR); conditions: 30 μM compound, 10 μM furimazine
Experimental: HeLa cells were transiently transfected with Beta-2 Adrenergic Receptor-Nluc (B2AR-Nluc; C-Terminus Nluc) or Nluc-Beta-2 Adrenergic Receptor (Nluc-B2AR; N-terminus Nluc) fusion protein to anchor and orient Nluc intracellularly or extracellularly, respectively. 24 hrs post-transfection, cells were treated with −/+30 μM of a thienopyrrole compound, JRW-0147, JRW-0051, and JRW-0138. 10 μM furimazine was added, and luminescence was detected by imaging on the Olympus LV200.

HEK293 cells = assay: Cell viability and toxicity (CellTiter-Glo); conditions: up to 100 μM after 18 hrs
Experimental: HEK293 cells were plated at 20 k cells/well and exposed to vehicle (DMSO), digitonin (positive control for cell death), or JRW-0344 for 10 min/30 min/120 min/240 min/or 18 hrs. CellTiter-Glo (Promega Corp.) was added, and luminescence measured.

SRC-Nluc or Nluc-HaloTag = assay: Inhibition of extracellular luciferase activity (SRC-Nluc / Nluc-HaloTag BRET); conditions: HEK293; 1 μM Dasatinib-DY605 (SRC-Nluc) or 100 nM NanoBRET-618 (Nluc-HaloTag)
Experimental: HEK293 were transiently transfected with either SRC-Nluc or Nluc-HaloTag. 24 hrs post-transfection, 20 k/cells were plated into wells of a 96-well plate (Costar 3600). 1 μM of the cell impermeable tracer Dasatinib-DY605 was added to the HEK293 SRC-Nluc expressing cells, and 100 nM of the cell permeable tracer NanoBRET-618, was added to the Nluc-HaloTag expressing cells. Both HEK293 SRC-Nluc and Nluc-HaloTag cells were exposed to a dose-response curve of JRW-0344.

[3] = 10 μM Stauro vs Control, 200 μM compound
[4] = CASPASE-GLO 3/7 reagent with 200 μM compound, 1 hr 10 min

Nluc, sequence (Q9GV45 28-196 with tags or gaps with the stated changes limits assumed): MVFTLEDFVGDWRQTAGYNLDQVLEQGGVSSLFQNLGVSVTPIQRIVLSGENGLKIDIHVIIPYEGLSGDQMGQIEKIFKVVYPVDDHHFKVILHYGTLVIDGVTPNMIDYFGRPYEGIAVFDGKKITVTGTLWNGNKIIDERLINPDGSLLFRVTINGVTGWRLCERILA

Row | SMILES | BRET ratio 610/450 nm across compound dose-response curve (FIGS. 12B-12E) [1] | Fold Cont, Media containing RealTime-Glo (Nluc; [3]) | Avg (luminescence), Media containing RealTime-Glo, 10 μM Stauro (Nluc; [4]) | Avg (luminescence), Media containing RealTime-Glo, Control (Nluc; [4]) | Fold Cont, Media only (Nluc enzyme; [3]) | Avg (luminescence), Media only, 10 μM Stauro (Nluc enzyme; [4]) | Avg (luminescence), Media only, Control (Nluc enzyme; [4]) | Inhibition of BRET in cell debris vs inside cells (FIGS. 15B-15C) (Src-Nluc fusion protein) | Permeability and inhibition of extracellular / intracellular Nluc by imaging (FIG. 14) [2] | Toxicity (FIG. 18A) (HEK293 cells) | Inhibition of BRET (FIGS. 20A-20C) (SRC-Nluc or Nluc-HaloTag)
1 | CCN(C(=O)Cn1c(C(=O)N[C@H]2CC[C@H](C(=O)OC)CC2)cc2sccc21)c1cccc(C)c1 [JRW-0013, trans-methyl-4-(4-(2-(ethyl(m-tolyl)amino)-2-oxoethyl)-4H-thieno[3,2-b]pyrrole-5-carboxamido)cyclohexane-1-carboxylate] | BRET ratio remained constant | 6.29 | 54338 | 8636 | 6.85 | 55282 | 8069 | – | – | – | –
2 | CCN(C(=O)Cn1c(C(=O)N[C@H]2CC[C@H](C(=O)NCCCCCC(=O)O)CC2)cc2sccc21)c1cccc(C)c1 [JRW-0147, 6-(trans-4-(4-(2-(ethyl(m-tolyl)amino)-2-oxoethyl)-4H-thieno[3,2-b]pyrrole-5-carboxamido)cyclohexane-1-carboxamido)hexanoic acid] | BRET ratio decreased | – | – | – | – | – | – | inhibited BRET in cell debris, but not BRET inside cells | impermeable and inhibited extracellular Nluc and enhanced intracellular Nluc | – | –
3 | CCN(C(=O)Cn1c(C(=O)N[C@H]2CC[C@H](C(=O)NCCCCCCS(=O)(=O)[O-])CC2)cc2sccc21)c1cccc(C)c1.[Na+] [JRW-0344, Sodium 6-(trans-4-(4-(2-(ethyl(m-tolyl)amino)-2-oxoethyl)-4H-thieno[3,2-b]pyrrole-5-carboxamido)cyclohexane-1-carboxamido)hexane-1-sulfonate] | – | – | – | – | – | – | – | – | – | no apparent toxicity | inhibits BRET in cell debris in the HEK293 SRC-Nluc expressing cells, but not in HEK293 Nluc-HaloTag expressing cells
